This note sets out measurements from patent US8003660B2, “Modulators of muscarinic receptors” (Vertex Pharmaceuticals Incorporated, priority 2006, dated 2011).

Where only a bound is given, the exact number is not on record here.

What all share (format): cell-based
Assay [1] concerns the target T1, M1 muscarinic receptor (Homo sapiens, UniProt P11229).
T1 construct: expressed in transfected cells; host or cells: CHO (M1-CHO)
T1 sequence (P11229 1-460): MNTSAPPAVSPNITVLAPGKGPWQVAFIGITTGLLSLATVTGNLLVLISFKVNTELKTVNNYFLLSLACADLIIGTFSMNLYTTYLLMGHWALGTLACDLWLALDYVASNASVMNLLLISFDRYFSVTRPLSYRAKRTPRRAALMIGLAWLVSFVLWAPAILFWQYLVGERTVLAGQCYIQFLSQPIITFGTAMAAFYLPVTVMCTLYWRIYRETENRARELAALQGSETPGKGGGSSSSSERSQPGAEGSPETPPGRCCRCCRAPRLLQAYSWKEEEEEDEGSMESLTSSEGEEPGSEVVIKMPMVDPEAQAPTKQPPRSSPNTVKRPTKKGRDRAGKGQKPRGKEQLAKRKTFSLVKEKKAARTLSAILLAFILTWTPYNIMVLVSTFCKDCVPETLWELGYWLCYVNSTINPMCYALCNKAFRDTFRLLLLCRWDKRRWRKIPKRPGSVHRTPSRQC
Nature of the assay: Functional mobilization of intracellular calcium (FLIPR) in CHO cells expressing M1. The settings on record: for EC50: CHO cells expressing M1, FLIPR calcium; for Emax: CHO, 100% = maximum response obtained with the Carbachol control, read-out: M1 Efficacy. The gist of the method: (§1)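 Calcium flux is read on FLIPR over 60 sec at 488/540 nm in muscarinic-receptor CHO lines. Antagonist mode adds carbachol at EC80 after 15 min compound preincubation or with simultaneous co-application. Agonist mode adds compound alone. Cells carry Fluo-3 or Calcium 3 dye in probenecid-containing pH 7.4 buffer, 0.5% DMSO final.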

Assay [2] has as its target T2, M2 muscarinic receptor (Homo sapiens, UniProt P08172).
T2 construct: expressed in transfected cells; host or cells: CHO (M2-CHO)
T2 sequence (P08172 1-466): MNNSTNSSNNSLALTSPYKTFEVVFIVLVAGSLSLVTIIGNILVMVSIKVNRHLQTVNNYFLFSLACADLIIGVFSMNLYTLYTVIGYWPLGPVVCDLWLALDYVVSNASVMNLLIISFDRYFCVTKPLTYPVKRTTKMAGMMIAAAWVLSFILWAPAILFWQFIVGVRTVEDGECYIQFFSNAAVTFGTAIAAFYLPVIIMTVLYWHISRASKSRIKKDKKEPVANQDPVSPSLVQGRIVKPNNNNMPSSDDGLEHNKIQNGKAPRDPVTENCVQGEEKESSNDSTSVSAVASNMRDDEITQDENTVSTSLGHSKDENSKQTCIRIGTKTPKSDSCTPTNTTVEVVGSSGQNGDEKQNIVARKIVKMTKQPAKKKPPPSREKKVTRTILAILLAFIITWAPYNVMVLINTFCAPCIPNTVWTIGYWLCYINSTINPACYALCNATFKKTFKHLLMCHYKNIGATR
Nature of the assay: Functional mobilization of intracellular calcium (FLIPR) in CHO cells expressing M2. Particulars: for EC50: CHO cells expressing M2, FLIPR calcium; for Emax: CHO, 100% = maximum response obtained with the Carbachol control, read-out: M2 Efficacy. In short, it runs like this:
as §1

Assay [3] deals with T3, M3 muscarinic receptor (Homo sapiens, UniProt P20309).
T3 construct: expressed in transfected cells; host or cells: CHO (M3-CHO)
Nature of the assay: Functional mobilization of intracellular calcium (FLIPR) in CHO cells expressing M3. Particulars: for EC50: CHO cells expressing M3, FLIPR calcium; for Emax: CHO, 100% = maximum response obtained with the Carbachol control, read-out: M3 Efficacy. In short, it runs like this:
as §1

Assay [4] deals with T4, M4 muscarinic receptor (Homo sapiens, UniProt P08173).
T4 construct: expressed in transfected cells; host or cells: CHO (M4-CHO)
T4 sequence (P08173 1-479): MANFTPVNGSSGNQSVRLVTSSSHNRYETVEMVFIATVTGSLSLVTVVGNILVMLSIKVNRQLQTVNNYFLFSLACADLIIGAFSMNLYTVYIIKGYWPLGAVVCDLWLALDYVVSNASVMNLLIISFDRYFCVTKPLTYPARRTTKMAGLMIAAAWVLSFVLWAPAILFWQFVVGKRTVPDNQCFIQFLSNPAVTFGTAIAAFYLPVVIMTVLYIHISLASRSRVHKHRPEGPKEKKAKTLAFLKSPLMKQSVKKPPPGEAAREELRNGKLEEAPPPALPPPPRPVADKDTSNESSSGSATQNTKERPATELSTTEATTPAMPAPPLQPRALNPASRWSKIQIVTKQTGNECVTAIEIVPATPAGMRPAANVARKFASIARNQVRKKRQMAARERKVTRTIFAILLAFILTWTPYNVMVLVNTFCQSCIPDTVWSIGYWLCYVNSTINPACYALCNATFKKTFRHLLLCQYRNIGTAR
Nature of the assay: Functional mobilization of intracellular calcium (FLIPR) in CHO cells expressing M4. The settings on record: for EC50: CHO cells expressing M4, FLIPR calcium; for Emax: CHO, 100% = maximum response obtained with the Carbachol control, read-out: M4 Efficacy. The gist of the method: as §1

T3 sequence (P20309 whole entry): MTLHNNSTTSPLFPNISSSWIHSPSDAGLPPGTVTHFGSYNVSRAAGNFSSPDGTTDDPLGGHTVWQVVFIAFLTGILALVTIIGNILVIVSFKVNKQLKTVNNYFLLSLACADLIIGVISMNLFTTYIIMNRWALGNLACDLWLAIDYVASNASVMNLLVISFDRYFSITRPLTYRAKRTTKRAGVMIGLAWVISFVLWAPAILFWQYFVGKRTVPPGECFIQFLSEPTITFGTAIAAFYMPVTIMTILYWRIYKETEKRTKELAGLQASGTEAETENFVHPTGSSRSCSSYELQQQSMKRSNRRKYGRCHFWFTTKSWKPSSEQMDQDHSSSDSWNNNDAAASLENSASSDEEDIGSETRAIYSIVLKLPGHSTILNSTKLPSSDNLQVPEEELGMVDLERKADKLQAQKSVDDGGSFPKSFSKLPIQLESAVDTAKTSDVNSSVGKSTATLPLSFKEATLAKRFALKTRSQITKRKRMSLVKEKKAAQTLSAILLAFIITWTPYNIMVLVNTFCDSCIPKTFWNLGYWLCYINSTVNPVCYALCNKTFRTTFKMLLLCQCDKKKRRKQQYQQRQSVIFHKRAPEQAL

For `CC(C)(C)CCN1CCC2(CC[C@@H](NC(=O)CC3CCOCC3)c3ccccc32)CC1` [compound 152], the EC50 in assay [1] was greater than 5000 nM; in assay [2], greater than 5000 nM; in assay [3] it was greater than 5000 nM; in assay [4], less than 2000 nM. Also, the Emax in assay [1] is less than 25%; in assay [2] it was less than 25%; in assay [3], less than 25%; in assay [4], 25 to 100%.
For `CC(=O)N(C(C)C)[C@H]1CCC2(CCN(CCC(C)(C)C)CC2)c2ccccc21` [compound 154], the EC50 is less than 2000 nM in assay [1], greater than 5000 nM in assay [2], greater than 5000 nM in assay [3] and less than 2000 nM in assay [4]. Moreover, the Emax in assay [1] is 25 to 100%; in assay [2] it was less than 25%; in assay [3], less than 25%; in assay [4], 25 to 100%.
Consider `CCC(=O)N[C@H]1CCC2(CCN(CCC(C)(C)C)CC2)c2ccccc21` [compound 156], for which the EC50 in assay [1] was less than 2000 nM; in assay [2], less than 2000 nM; in assay [3] it was greater than 5000 nM; in assay [4] it was less than 2000 nM. The Emax is 25 to 100% in assay [1], 25 to 100% in assay [2], less than 25% in assay [3] and 25 to 100% in assay [4].
Regarding `C[C@H](C(=O)N[C@@H]1CCC2(CCN(CCC(C)(C)C)CC2)c2ccccc21)N1CCCC1=O` [compound 157], the 50% effective concentration (EC50) in assay [1] is 2000 to 5000 nM; in assay [2], less than 2000 nM; in assay [3], greater than 5000 nM; in assay [4] it was less than 2000 nM. The Emax was 25 to 100% in assay [1], less than 25% in assay [2], less than 25% in assay [3] and 25 to 100% in assay [4].
In the case of `CC(C)(C)CCN1CCC2(CC[C@H](NC(=O)C3CC3)c3ccccc32)CC1` [compound 158], the concentration for a half-maximal effect (EC50) in assay [1] was less than 2000 nM; in assay [2], less than 2000 nM; in assay [3] it was greater than 5000 nM; in assay [4], less than 2000 nM. For the same molecule, the Emax is 25 to 100% in assay [1], 25 to 100% in assay [2], less than 25% in assay [3] and 25 to 100% in assay [4].
In the case of `CC(=O)N[C@H]1CCC2(CCN(CCC(C)C)CC2)c2ccccc21` [compound 159], the EC50 in assay [1] is less than 2000 nM; in assay [2], greater than 5000 nM; in assay [3] it was greater than 5000 nM; in assay [4] it was less than 2000 nM. Moreover, the Emax in assay [1] was 25 to 100%; in assay [2] it was less than 25%; in assay [3], less than 25%; in assay [4], 25 to 100%.
Take `CC(=O)N1CCC[C@@H]1C(=O)N[C@H]1CCC2(CCN(CCC(C)(C)C)CC2)c2ccccc21` [compound 160]: the EC50 in assay [1] was less than 2000 nM; in assay [2] it was greater than 5000 nM; in assay [3], greater than 5000 nM; in assay [4], less than 2000 nM. Also, the Emax in assay [1] was 25 to 100%; in assay [2] it was less than 25%; in assay [3], less than 25%; in assay [4], 25 to 100%.
Take `CN([C@H]1CCC2(CCN(CCC(C)(C)C)CC2)c2ccccc21)S(C)(=O)=O` [compound 161]: the concentration for a half-maximal effect (EC50) was less than 2000 nM in assay [1], greater than 5000 nM in assay [2], greater than 5000 nM in assay [3] and less than 2000 nM in assay [4]. The Emax in assay [1] is 25 to 100%; in assay [2], less than 25%; in assay [3], less than 25%; in assay [4], 25 to 100%.
For the molecule `CC(=O)N[C@H](C)C(=O)N[C@@H]1CCC2(CCN(CCC(C)(C)C)CC2)c2ccccc21` [compound 162], the concentration for a half-maximal effect (EC50) in assay [1] is greater than 5000 nM; in assay [2], greater than 5000 nM; in assay [3], greater than 5000 nM; in assay [4], less than 2000 nM. The Emax was 25 to 100% in assay [1], less than 25% in assay [2], less than 25% in assay [3] and 25 to 100% in assay [4].
Take `CC(=O)N[C@H](C)C(=O)N[C@@H]1CCC2(CCN(CCC(C)(C)C)CC2)c2cc(F)ccc21` [compound 163]: the EC50 in assay [1] is less than 2000 nM; in assay [2], less than 2000 nM; in assay [3], greater than 5000 nM; in assay [4], less than 2000 nM. The Emax in assay [1] is 25 to 100%; in assay [2], 25 to 100%; in assay [3], less than 25%; in assay [4], 25 to 100%.
`CCC(=O)N(C)[C@H]1CCC2(CCN(CCC(C)(C)C)CC2)c2ccccc21` [compound 164]: the EC50 in assay [1] was less than 2000 nM; in assay [2], greater than 5000 nM; in assay [3] it was greater than 5000 nM; in assay [4], less than 2000 nM. The Emax in assay [1] was 25 to 100%; in assay [2], less than 25%; in assay [3] it was less than 25%; in assay [4], 25 to 100%.
For `Cn1cnc(C(=O)N[C@H]2CCC3(CCN(CCC(C)(C)C)CC3)c3cc(F)ccc32)c1` [compound 165], the concentration for a half-maximal effect (EC50) in assay [1] was less than 2000 nM; in assay [2], less than 2000 nM; in assay [3] it was greater than 5000 nM; in assay [4], less than 2000 nM. For the same molecule, the Emax in assay [1] is 25 to 100%; in assay [2], 25 to 100%; in assay [3], less than 25%; in assay [4], 25 to 100%.
In the case of `CCN(C(=O)C1CCN(C(=O)OC)CC1)[C@H]1CCC2(CCN(CCC(C)(C)C)CC2)c2ccccc21` [compound 166], the half-maximal effective concentration (EC50) in assay [1] was greater than 5000 nM; in assay [2], greater than 5000 nM; in assay [3], greater than 5000 nM; in assay [4], less than 2000 nM. In addition, the Emax in assay [1] is 25 to 100%; in assay [2], less than 25%; in assay [3], less than 25%; in assay [4], 25 to 100%.
For the molecule `CC(C)[C@@H](C(=O)N[C@H]1CCC2(CCN(CCC(C)(C)C)CC2)c2ccccc21)N1CCCC1=O` [compound 167], the concentration giving a half-maximal response (EC50) in assay [1] is less than 2000 nM; in assay [2], greater than 5000 nM; in assay [3], greater than 5000 nM; in assay [4], less than 2000 nM. For the same molecule, the Emax in assay [1] was 25 to 100%; in assay [2] it was less than 25%; in assay [3] it was less than 25%; in assay [4] it was 25 to 100%.
Take `CC(C)(C)CCN1CCC2(CC[C@@H](N3CCCC3=O)c3ccc(F)cc32)CC1` [compound 168]: the EC50 in assay [1] is 2000 to 5000 nM; in assay [2] it was greater than 5000 nM; in assay [3], greater than 5000 nM; in assay [4], less than 2000 nM. Moreover, the Emax in assay [1] is less than 25%; in assay [2], less than 25%; in assay [3], less than 25%; in assay [4], 25 to 100%.
On to `CC(C)(C)CCN1CCC2(CC[C@@H](NC(=O)CN3CCCCCC3=O)c3ccccc32)CC1` [compound 169], for which the concentration for a half-maximal effect (EC50) is less than 2000 nM in assay [1], less than 2000 nM in assay [2], greater than 5000 nM in assay [3] and less than 2000 nM in assay [4]. Moreover, the Emax in assay [1] is 25 to 100%; in assay [2], less than 25%; in assay [3], less than 25%; in assay [4], 25 to 100%.
With `CCN(C(=O)C1CCOCC1)[C@H]1CCC2(CCN(CCC(C)(C)C)CC2)c2ccccc21` [compound 170], the 50% effective concentration (EC50) was greater than 5000 nM in assay [1], greater than 5000 nM in assay [2], greater than 5000 nM in assay [3] and less than 2000 nM in assay [4]. Further, the Emax in assay [1] was less than 25%; in assay [2], less than 25%; in assay [3], less than 25%; in assay [4], 25 to 100%.
